Assay results reported in patent US5064946A, “Therapeutic nucleosides” (priority 1987, dated 1991).
pEC50: −log10 of the molar value.

Legend:
HIV [1] = test: AZT/Interferon combinations vs. HIV in vitro in PBMC: reverse transcriptase (RT) activity of supernatants; assay type: cell-based; details: rIFNαA 0; for mean reverse transcriptase value: Experiment 2-Day 10
HIV [2] = test: AZT/Acyclovir combinations vs. HIV in vitro (protection); assay type: cell-based
[3] = system: Friend Leukaemia Virus (FLV); details: Krieg et al. 1978; cited from earlier work
HIV [4] = test: AZT/Interferon combinations vs. HIV in vitro in PBMC: overall inhibition / synergy (all measures of viral replication, isobologram); assay type: cell-based; details: experiment 1, all concentrations of AZT
HIV p24 = test: AZT/Interferon combinations vs. HIV in vitro in PBMC: HIV p24 antigen by radioimmunoassay; assay type: cell-based; details: Experiment 4-Day 14, IFNαA 0
[5] = system: vaccinia, HSVI and varicella zoster virus (VZV); details: De Clerq et al. 1980, incl. vaccinia; cited from earlier work
clinical = details: human, in vivo
Procedure: On days 2 and 3 the patients were also given 500 mg probenecid (PB) every 6 hours and a single dose of AZT was given on day 3.

[6] = system: Friend Leukemia Virus (FLV); test: Anti-Friend Leukemia Virus plaque inhibition in FG-10 cells; assay type: cell-based; details: 144 h, read-out: Azidothymidine ED50
[7] = system: thrombocytopaenia purpura; test: Anti-ITP activity: platelet count in a patient with thrombocytopaenia purpura; assay type: in vivo, human (patient)
Procedure: A patient having a platelet count of 38,000 mm^-3 was diagnosed as having thrombocytopaenia purpura (platelet count <100,000 mm^-3) and was treated for 6 weeks with 5 mg/kg of AZT intravenously every 6 hours during which time, their platelet count rose to 140,000 mm^-3. Treatment was then changed to 5 mg/kg/4 hours orally for 4 weeks, discontinued for 4 weeks, when a drop in platelet numbers, to 93,000 mm^-3 after 2 weeks, and to 70,000 mm^-3 after 4 weeks, was seen. Treatment was recommenced at 5 mg/kg/4 hours orally for 5 weeks and the platelet count rose to 194,000 mm^-3.

E. coli CN314 = test: In vitro antibacterial MIC and synergy studies against E. coli CN314; details: Escherichia coli
[8] = Ostertag et al. 1974; cited from earlier work
Kaposi's sarcoma (KS) = test: Treatment of Kaposi's sarcoma in 9 patients; assay type: in vivo, human (patients)
Procedure: In this study, 9 patients diagnosed as having Kaposi's sarcoma (KS) were treated with AZT and the following effects observed.

Cc1cn([C@H]2C[C@H](N=[N+]=[N-])[C@@H](CO)O2)c(=O)[nH]c1=O [AZT]
mean reverse transcriptase value (HIV [1]; AZT 0.01 μM): 159 cpm/10^6 cells × 10^3
mean reverse transcriptase value (HIV [1]; AZT 0.02 μM): 110 cpm/10^6 cells × 10^3
mean reverse transcriptase value (HIV [1]; AZT 0.04 μM): 71 cpm/10^6 cells × 10^3
mean reverse transcriptase value (HIV [1]; AZT 0.08 μM): 31 cpm/10^6 cells × 10^3
mean reverse transcriptase value (HIV [1]; AZT 0.16 μM): 7 cpm/10^6 cells × 10^3
mean RT value (HIV [1]; Experiment 3-Day 13, AZT 0.02 μM): 51 cpm/10^6 cells × 10^3
mean RT value (HIV [1]; Experiment 3-Day 13, AZT 0.04 μM): 10 cpm/10^6 cells × 10^3
mean RT value (HIV [1]; Experiment 3-Day 13, AZT 0.08 μM): 2 cpm/10^6 cells × 10^3
mean RT value (HIV [1]; Experiment 3-Day 13, AZT 0.16 μM): 5 cpm/10^6 cells × 10^3
mean RT value (HIV [1]; Experiment 4-Day 11, AZT 0.02 μM): 8 cpm/10^6 cells × 10^3
mean RT value (HIV [1]; Experiment 4-Day 11, AZT 0.04 μM): 4 cpm/10^6 cells × 10^3
mean RT value (HIV [1]; Experiment 4-Day 11, AZT 0.08 μM): 1 cpm/10^6 cells × 10^3
inhibition at 8 µM (HIV [2]; Human immunodeficiency virus 1, T-cell, AZT alone, 8 μM): 100%
AZT concentration required to achieve 100% protection (HIV [2]; with ACV 0 μg/ml): 8 µM
activity against FLV in in vitro experiments [3]: active against FLV
inhibition of HIV (HIV [4]): fully inhibitory
HIV p24 (HIV p24; AZT 0.02 μM): 100-200 ng protein/ml
HIV p24 (HIV p24; AZT 0.04 μM): 25-30 ng protein/ml
HIV p24 (HIV p24; AZT 0.08 μM): 11.2 ng protein/ml
activity against any viruses used in their tests [5]: no appreciable activity
decrease in the total body clearance (Cl/F) (clinical): 3 -fold
peak (Cmax) and trough (Cmin) levels on day 3 vs day 1 (clinical): significantly higher than the corresponding levels on day 1
tl/2 (clinical; po, 2 mg/kg): 0.89 h
AUC (clinical; po, 2 mg/kg, AUC): 3.7 µM·h
Cmax (clinical; po, 2 mg/kg, Cmax): 3.74 µM
Tmax (clinical; po, 2 mg/kg, Tmax): 30 min
half-life (clinical; po, 2 mg/kg, mean half-life (tl/2)): 52.8 min
half-life (clinical; po, 2 mg/kg, tl/2): 52.2 min
pEC50 [6]: 8.30
platelet count ([7]; 2 weeks after discontinuation): 93,000 mm^-3
platelet count ([7]; 4 weeks after discontinuation): 70,000 mm^-3
platelet count ([7]; after 6 weeks 5 mg/kg i.v. every 6 hours (start 38,000)): 140,000 mm^-3
platelet count ([7]; treatment recommenced, 5 mg/kg/4 hours orally for 5 weeks): 194,000 mm^-3
MIC (E. coli CN314): 1 µg/mL
cellular toxicity [8]: lack of cellular toxicity
response (Kaposi's sarcoma (KS); 9 patients): 50%
patients exhibiting regression of lesions (Kaposi's sarcoma (KS); of 9 patients): Three
patients in which lesions progressed (Kaposi's sarcoma (KS); of 9 patients): 3 patients
patients in which the KS remained stable (Kaposi's sarcoma (KS); of 9 patients): 2 patients
patients with complete cure (Kaposi's sarcoma (KS); of 9 patients): one
response relative to preferred current therapy (Kaposi's sarcoma (KS); vs recombinant a-interferon): comparable to that obtained with treatment with the preferred current therapy for KS, recombinant a-interferon
